Measured values reported in ChEMBL document CHEMBL6114989, “D-morphinan analogs with favorable pharmacokinetic profiles as dual-acting antidepressants” (Eur J Med Chem, 2025).
The source made the active and inactive calls. The rule behind the calls is not given here.

Experiments:
[1] = Hepatotoxicity against human HepG2 cells assessed as inhibition of cell proliferation incubated for 48 hrs by celltiter-luminescence assay; format: toxicity, cell-based
[2] = Nephrotoxicity against human HEK293 cells assessed as inhibition of cell proliferation incubated for 48 hrs by celltiter-luminescence assay; format: toxicity, cell-based
Mu-type opioid receptor [3] = target: T1, Mu-type opioid receptor (Homo sapiens, UniProt P35372); assay: Agonist activity at human mu-opioid receptor stably expressed in CHO cells assessed as inhibition of forskolin-induced cAMP accumulation at 30 uM preincubated with compound for 10 mins followed by forskolin induction and measured after 30 mins by LANCE Ultra cAMP assay relative to control; format: functional, cell-based; settings: time 40.0 min
T1 sequence (P35372 whole entry): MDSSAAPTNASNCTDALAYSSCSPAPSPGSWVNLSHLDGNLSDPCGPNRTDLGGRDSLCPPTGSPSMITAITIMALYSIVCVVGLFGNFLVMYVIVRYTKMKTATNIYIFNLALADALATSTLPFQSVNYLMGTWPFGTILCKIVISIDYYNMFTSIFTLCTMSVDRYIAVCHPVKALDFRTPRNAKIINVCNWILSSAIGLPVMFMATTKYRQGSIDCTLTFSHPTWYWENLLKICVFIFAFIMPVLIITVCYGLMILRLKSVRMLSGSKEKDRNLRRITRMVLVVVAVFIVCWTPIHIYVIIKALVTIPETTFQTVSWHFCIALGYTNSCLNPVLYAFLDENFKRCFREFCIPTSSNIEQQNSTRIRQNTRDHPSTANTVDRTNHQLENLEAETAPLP

[4] = target: T2, Glutamate NMDA receptor; GRIN1/GRIN2A (Homo sapiens, UniProt Q05586+Q12879); assay: Inhibition of human GluN1/GluN2A NMDA receptor expressed in HEK293 cells assessed as reduction in glutamate induced current at -70 mV holding potential by whole-cell patch clamp technique; format: cell-based
T2 sequence (Q12879 whole entry, other chains not shown): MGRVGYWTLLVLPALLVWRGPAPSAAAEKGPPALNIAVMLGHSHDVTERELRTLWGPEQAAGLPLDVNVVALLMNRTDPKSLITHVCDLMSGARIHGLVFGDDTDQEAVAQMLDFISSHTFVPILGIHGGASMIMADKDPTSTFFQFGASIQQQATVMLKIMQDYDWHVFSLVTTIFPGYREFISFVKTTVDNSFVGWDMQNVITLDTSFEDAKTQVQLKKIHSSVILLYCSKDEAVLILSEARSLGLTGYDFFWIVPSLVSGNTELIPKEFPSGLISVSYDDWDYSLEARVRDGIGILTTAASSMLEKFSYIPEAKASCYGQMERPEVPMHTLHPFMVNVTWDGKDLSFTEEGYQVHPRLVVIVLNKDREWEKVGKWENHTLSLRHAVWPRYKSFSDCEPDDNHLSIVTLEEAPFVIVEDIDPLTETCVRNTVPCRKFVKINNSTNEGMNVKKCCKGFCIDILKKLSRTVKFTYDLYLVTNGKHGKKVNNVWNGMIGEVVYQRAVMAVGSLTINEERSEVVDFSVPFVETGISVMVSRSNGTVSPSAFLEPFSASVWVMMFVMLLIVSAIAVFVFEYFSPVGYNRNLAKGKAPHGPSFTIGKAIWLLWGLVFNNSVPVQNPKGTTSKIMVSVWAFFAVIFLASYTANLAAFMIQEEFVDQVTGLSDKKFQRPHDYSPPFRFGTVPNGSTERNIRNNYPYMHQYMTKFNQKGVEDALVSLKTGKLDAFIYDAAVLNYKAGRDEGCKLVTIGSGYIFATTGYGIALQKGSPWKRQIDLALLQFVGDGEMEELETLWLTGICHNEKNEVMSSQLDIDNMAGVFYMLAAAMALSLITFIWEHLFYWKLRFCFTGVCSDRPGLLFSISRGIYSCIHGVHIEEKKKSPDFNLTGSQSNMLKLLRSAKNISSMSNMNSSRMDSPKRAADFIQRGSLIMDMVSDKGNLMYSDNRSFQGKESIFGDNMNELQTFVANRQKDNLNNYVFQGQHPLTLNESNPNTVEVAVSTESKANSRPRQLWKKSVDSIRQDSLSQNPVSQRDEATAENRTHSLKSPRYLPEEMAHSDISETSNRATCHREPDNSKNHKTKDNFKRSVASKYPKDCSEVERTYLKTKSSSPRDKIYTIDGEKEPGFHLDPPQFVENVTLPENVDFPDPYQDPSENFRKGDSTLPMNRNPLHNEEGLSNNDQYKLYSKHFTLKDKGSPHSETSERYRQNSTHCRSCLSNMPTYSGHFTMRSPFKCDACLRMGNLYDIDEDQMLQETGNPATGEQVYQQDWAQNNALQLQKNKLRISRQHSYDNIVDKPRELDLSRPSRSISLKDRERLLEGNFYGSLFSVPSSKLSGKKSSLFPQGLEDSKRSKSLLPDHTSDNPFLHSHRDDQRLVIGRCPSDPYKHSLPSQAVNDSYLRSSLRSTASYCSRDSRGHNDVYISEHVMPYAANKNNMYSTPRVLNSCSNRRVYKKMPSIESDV

[5] = target: T3, Sodium-dependent noradrenaline transporter (Homo sapiens, UniProt P23975); assay: Inhibition of human NET
T3 sequence (P23975 whole entry): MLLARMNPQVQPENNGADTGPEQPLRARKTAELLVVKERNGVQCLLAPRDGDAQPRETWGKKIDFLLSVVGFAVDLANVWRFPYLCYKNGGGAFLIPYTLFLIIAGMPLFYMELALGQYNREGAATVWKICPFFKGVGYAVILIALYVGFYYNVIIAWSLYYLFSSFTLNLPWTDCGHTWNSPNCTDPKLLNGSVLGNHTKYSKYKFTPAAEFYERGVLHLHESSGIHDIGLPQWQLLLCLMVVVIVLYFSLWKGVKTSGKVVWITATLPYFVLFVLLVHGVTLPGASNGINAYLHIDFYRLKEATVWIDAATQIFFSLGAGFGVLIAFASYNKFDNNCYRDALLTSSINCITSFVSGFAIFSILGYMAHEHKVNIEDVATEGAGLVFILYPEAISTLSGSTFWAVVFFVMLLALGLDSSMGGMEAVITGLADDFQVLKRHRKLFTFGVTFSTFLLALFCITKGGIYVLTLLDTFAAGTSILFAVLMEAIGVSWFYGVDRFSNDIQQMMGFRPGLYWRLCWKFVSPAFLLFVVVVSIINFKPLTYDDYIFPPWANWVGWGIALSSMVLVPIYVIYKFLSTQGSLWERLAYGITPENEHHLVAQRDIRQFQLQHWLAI

[6] = target: T4, Sodium-dependent dopamine transporter (Homo sapiens, UniProt Q01959); assay: Inhibition of DAT (unknown origin) at 10 uM relative to control
T4 sequence (Q01959 whole entry): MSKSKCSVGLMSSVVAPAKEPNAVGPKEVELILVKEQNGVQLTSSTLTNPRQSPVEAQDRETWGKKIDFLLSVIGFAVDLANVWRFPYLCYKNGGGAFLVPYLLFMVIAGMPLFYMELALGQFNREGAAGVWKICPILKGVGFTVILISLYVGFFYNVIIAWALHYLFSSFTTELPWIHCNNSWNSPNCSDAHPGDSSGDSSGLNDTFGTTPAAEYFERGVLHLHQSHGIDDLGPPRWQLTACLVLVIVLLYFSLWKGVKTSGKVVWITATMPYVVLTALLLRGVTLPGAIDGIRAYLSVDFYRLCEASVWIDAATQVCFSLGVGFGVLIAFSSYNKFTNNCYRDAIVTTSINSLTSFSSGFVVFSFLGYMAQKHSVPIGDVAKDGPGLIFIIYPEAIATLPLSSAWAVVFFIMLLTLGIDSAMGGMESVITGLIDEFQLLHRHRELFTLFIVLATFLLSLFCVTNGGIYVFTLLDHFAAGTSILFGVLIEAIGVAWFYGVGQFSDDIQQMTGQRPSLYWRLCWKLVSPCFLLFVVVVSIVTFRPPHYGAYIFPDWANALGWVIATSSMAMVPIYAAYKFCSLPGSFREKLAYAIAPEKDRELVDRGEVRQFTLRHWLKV

[7] = target: Sodium-dependent serotonin transporter (Homo sapiens, UniProt P31645)
Sodium-dependent serotonin transporter, sequence (P31645 whole entry): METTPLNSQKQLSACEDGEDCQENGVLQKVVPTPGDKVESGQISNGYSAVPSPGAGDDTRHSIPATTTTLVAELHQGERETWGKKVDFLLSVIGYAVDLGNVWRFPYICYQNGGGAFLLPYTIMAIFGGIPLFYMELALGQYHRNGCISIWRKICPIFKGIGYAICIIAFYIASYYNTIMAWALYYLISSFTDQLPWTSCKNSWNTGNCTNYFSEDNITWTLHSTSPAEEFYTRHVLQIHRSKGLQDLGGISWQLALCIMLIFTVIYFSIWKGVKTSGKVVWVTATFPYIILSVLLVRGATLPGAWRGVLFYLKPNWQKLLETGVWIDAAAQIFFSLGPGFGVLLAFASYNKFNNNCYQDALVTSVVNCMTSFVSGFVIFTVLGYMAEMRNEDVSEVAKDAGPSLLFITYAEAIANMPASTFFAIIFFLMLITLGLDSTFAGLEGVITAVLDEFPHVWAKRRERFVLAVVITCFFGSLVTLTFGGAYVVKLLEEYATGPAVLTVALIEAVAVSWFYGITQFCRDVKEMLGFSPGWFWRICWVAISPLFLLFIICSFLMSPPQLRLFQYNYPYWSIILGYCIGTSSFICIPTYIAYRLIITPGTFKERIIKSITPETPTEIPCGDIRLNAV

[8] = target: T3, Sodium-dependent noradrenaline transporter; assay: Inhibition of NET (unknown origin) at 10 uM relative to control
[9] = target: T2, Glutamate NMDA receptor; GRIN1/GRIN2A; assay: Antagonist activity at human GluN1/GluN2A NMDA receptor expressed in HEK293 cells assessed as reduction in glutamate induced current at -70 mV holding potential by whole-cell patch clamp technique; format: cell-based
Mu-type opioid receptor [10] = target: T1, Mu-type opioid receptor; assay: Agonist activity at human mu-opioid receptor stably expressed in CHO cells assessed as inhibition of forskolin-induced cAMP accumulation preincubated with compound for 10 mins followed by forskolin induction and measured after 30 mins by LANCE Ultra cAMP assay; format: functional, cell-based
[11] = Metabolic stability in mouse liver microsome assessed as intrinsic clearance in presence of NADPH measured upto 60 mins by LC-MS/MS analysis; format: ADME; settings: liver microsomes, read-out: CLH
Mus musculus = assay: Antidepressant activity in ip dosed C57BL/6J mouse assessed as reduction in of immobility time by forced swim test; format: functional, organism-based; settings: dose 10-20 mg/kg
[12] = Tmax in ICR mouse at 10 mg/kg, ip measured upto 24 hrs by LC-MS/MS analysis; format: ADME, organism-based; settings: in vivo
[13] = Metabolic stability in mouse liver microsome assessed as half life in presence of NADPH measured upto 60 mins by LC-MS/MS analysis; format: ADME; settings: liver microsomes
[14] = Half life in ICR mouse at 10 mg/kg, po measured upto 24 hrs by LC-MS/MS analysis; format: ADME, organism-based; settings: in vivo
[15] = AUC (0 to t) in ICR mouse at 10 mg/kg, ip measured upto 24 hrs by LC-MS/MS analysis; format: ADME, organism-based; settings: in vivo
[16] = Metabolic stability in mouse liver microsome assessed as hepatic clearance in presence of NADPH measured upto 60 mins by LC-MS/MS analysis; format: ADME; settings: liver microsomes
[17] = Half life in ICR mouse at 10 mg/kg, ip measured upto 24 hrs by LC-MS/MS analysis; format: ADME, organism-based; settings: in vivo
[18] = AUC (0 to infinity) in ICR mouse at 10 mg/kg, ip measured upto 24 hrs by LC-MS/MS analysis; format: ADME, organism-based; settings: in vivo
[19] = AUC (0 to infinity) in ICR mouse at 10 mg/kg, po measured upto 24 hrs by LC-MS/MS analysis; format: ADME, organism-based; settings: in vivo
[20] = Metabolic stability in mouse liver microsome assessed as hepatic extraction ratio in presence of NADPH measured upto 60 mins by LC-MS/MS analysis; format: ADME; settings: liver microsomes, read-out: ERH
[21] = AUC (0 to t) in ICR mouse at 10 mg/kg, po measured upto 24 hrs by LC-MS/MS analysis; format: ADME, organism-based; settings: in vivo
[22] = MRT (0 to infinity) in ICR mouse at 10 mg/kg, ip measured upto 24 hrs by LC-MS/MS analysis; format: ADME, organism-based; settings: in vivo
[23] = Cmax in ICR mouse at 10 mg/kg, po measured upto 24 hrs by LC-MS/MS analysis; format: ADME, organism-based; settings: in vivo
[24] = MRT (0 to t) in ICR mouse at 10 mg/kg, po measured upto 24 hrs by LC-MS/MS analysis; format: ADME, organism-based; settings: in vivo
[25] = Cmax in ICR mouse at 10 mg/kg, ip measured upto 24 hrs by LC-MS/MS analysis; format: ADME, organism-based; settings: in vivo
[26] = Tmax in ICR mouse at 10 mg/kg, po measured upto 24 hrs by LC-MS/MS analysis; format: ADME, organism-based; settings: in vivo
[27] = Selectivity index, ratio of IC50 for inhibition of human GluN1/GluN2A NMDA receptor expressed in HEK293 cells to IC50 for inhibition of SERT (unknown origin); format: cell-based
[28] = target: T4, Sodium-dependent dopamine transporter; assay: Inhibition of DAT (unknown origin)

| Compound | inhibition (Mu-type opioid receptor [3]) [%] | IC50 [4] [µM] | inhibition [6] | IC50 [7] [µM] | inhibition [8] | other results |
| --- | --- | --- | --- | --- | --- | --- |
| Cc1ccc(Sc2ccccc2N2CCNCC2)c(C)c1 [VORTIOXETINE] | – | – | – | – | – | IC50 at 48 h [1]: 8.1 µM; IC50 at 48 h [2]: 12.2 µM |
| CN1CC[C@@]23CCCC[C@@H]2[C@@H]1Cc1ccccc13 | 39 | 2.96 | 15% | 333 | – | IC50 [5]: 17.3 µM |
| CC(O)c1ccc2c(c1)[C@]13CCCC[C@@H]1[C@H](C2)N(C)CC3 (some centres not stated) | 8 | – | inactive | 1090 | 39% | – |
| c1ccc2c(c1)C[C@@H]1NCC[C@]23CCCC[C@H]13 | – | – | 20% | 8300 | 14% | inhibition (Mu-type opioid receptor [3]; filed as agonist): 95%; IC50 [9]: 0.43 µM |
| CCOc1ccc2c(c1)[C@]13CCCC[C@@H]1[C@H](C2)N(C)CC3 | 26 | 1.81 | 10% | 15 | 33% | – |
| CN1CC[C@@]23CCCC[C@@H]2[C@@H]1Cc1ccc(O)cc13 [DEXTRORPHAN] | – | 0.28 | inactive | 633 | – | IC50 [5]: 2.84 µM |
| CN1CC[C@@]23CCCC[C@@H]2[C@@H]1Cc1ccc(C(N)=O)cc13 | – | 3.01 | inactive | 123 | 12% | EC50 (Mu-type opioid receptor [10]): 25 µM |
| COc1ccc2c(c1)[C@]13CCCC[C@@H]1[C@H](C2)NCC3 | 23 | 0.3 | 4% | 1170 | 44% | – |
| CN1CC[C@@]23CCCC[C@@H]2[C@@H]1Cc1ccc(NC(=O)c2ccccc2)cc13 | 14 | 2.2 | 15% | 7600 | inactive | – |
| CCOc1ccc2c(c1)[C@]13CCCC[C@@H]1[C@H](C2)NCC3 | 24 | 0.34 | 16% | 463 | 12% | – |
| CC(=O)Nc1ccc2c(c1)[C@]13CCCC[C@@H]1[C@H](C2)N(C)CC3 | 36 | 2.17 | 19% | 435 | inactive | CLint scaled [11]: 35.1 mL/min/kg; Activity (Mus musculus): Dose-dependent-effect; Tmax [12]: 4.8 min; half-life [13]: 267 min; half-life [14]: 51.6 min; AUC(0-t) at 24 h [15]: 1080 ng·h/mL; CLhep predicted [16]: 25.3 mL/min/kg; half-life [17]: 44.4 min; AUC(0-inf) [18]: 1080 ng·h/mL; AUC(0-inf) [19]: 1220 ng·h/mL; hepatic extraction ratio at 1 h [20]: 0.281; AUC(0-t) at 24 h [21]: 1220 ng·h/mL; MRT inf [22]: 40.8 min; Cmax [23]: 1040 ng/mL; MRT last at 24 h [24]: 62.4 min; Cmax [25]: 1680 ng/mL; Tmax [26]: 11.4 min |
| CC(=O)c1ccc2c(c1)[C@]13CCCC[C@@H]1[C@H](C2)N(C)CC3 | – | > 40 | inactive | 130 | inactive | inhibition (Mu-type opioid receptor [3]; filed as agonist): 87% |
| Cc1ccc2c(c1)[C@]13CCCC[C@@H]1[C@H](C2)NCC3 | 16 | 0.28 | inactive | 2090 | – | IC50 [5]: 5.72 µM |
| CCN1CC[C@@]23CCCC[C@@H]2[C@@H]1Cc1ccccc13 | – | 4.92 | inactive | 11300 | 23% | inhibition (Mu-type opioid receptor [3]; filed as agonist): 40% |
| CNc1ccc2c(c1)[C@]13CCCC[C@@H]1[C@H](C2)N(C)CC3 | 14 | 6.23 | 10% | 577 | 25% | – |
| CN1CC[C@@]23CCCC[C@@H]2[C@@H]1Cc1ccc(NC=O)cc13 | 33 | 3.07 | 6% | 270 | inactive | – |
| CCN1CC[C@@]23CCCC[C@@H]2[C@@H]1Cc1ccc(O)cc13 | 9 | 0.28 | 12% | 5400 | – | IC50 [5]: 10.6 µM |
| CN1CC[C@@]23CCCC[C@@H]2[C@@H]1Cc1ccc(C(=O)NC2CC2)cc13 | – | 9.23 | 6% | 5660 | inactive | inhibition (Mu-type opioid receptor [3]; filed as agonist): 60% |
| CCc1ccc2c(c1)[C@]13CCCC[C@@H]1[C@H](C2)N(C)CC3 | 23 | 5.18 | 13% | 238 | – | IC50 [5]: 4.9 µM |
| COC(=O)c1ccc2c(c1)[C@]13CCCC[C@@H]1[C@H](C2)N(C)CC3 | – | 4.77 | inactive | 17 | 12% | inhibition (Mu-type opioid receptor [3]; filed as agonist): 88% |
| CCc1ccc2c(c1)[C@]13CCCC[C@@H]1[C@H](C2)NCC3 | 33 | 0.5 | inactive | 1890 | – | IC50 [5]: 4.71 µM |
| CCOc1ccc2c(c1)[C@]13CCCC[C@@H]1[C@H](C2)N(CC)CC3 | 4 | 1.3 | 6% | 2000 | 26% | – |
| CN1CC[C@@]23CCCC[C@@H]2[C@@H]1Cc1ccc(C(C)(C)O)cc13 | 11 | > 40 | inactive | 9000 | inactive | – |
| Cc1ccc2c(c1)[C@]13CCCC[C@@H]1[C@H](C2)N(C)CC3 [DIMEMORFAN] | 21 | 2.96 | inactive | 148 | – | Ratio IC50 [27]: 20; IC50 [5]: 1.22 µM |
| c1ccc2cc([C@]34CNC[C@H]3C4)ccc2c1 [CENTANAFADINE] | – | – | – | 90 | – | IC50 [28]: 0.06 µM; Activity (Mu-type opioid receptor [3]): inactive; IC50 [5]: 0.01 µM |
| CCc1ccc2c(c1)[C@]13CCCC[C@@H]1[C@H](C2)N(CC)CC3 | 10 | 9.87 | 5% | 2300 | 24% | – |
| CNC(=O)c1ccc2c(c1)[C@]13CCCC[C@@H]1[C@H](C2)N(C)CC3 | 25 | 19.9 | 15% | 335 | 12% | – |
